Measurements published in US4281012A, “[4H]-1,3-Benzodioxin-2-carboxylic acids” (Roussel Uclaf, priority 1978, dated 1981).

Columns and labels:
[1] = Acute toxicity in mice, DL50 dose; details: mouse, in vivo, ip, intraperitoneal, suspension in aqueous carboxymethylcellulose, observed one week
Protocol: The acute toxicity was determined on groups of 5 mice weighing about 18 to 22 g and the test products were intraperitoneally administered in suspension in an aqueous carboxymethylcellulose.

[2] = tested on: male rats of the Sprague Dawley S.P.F. strain; assay: Hypolipemiant activity in rats on sucrose- and cholesterol-rich regime, % variation of levels versus untreated controls; type: in vivo, rat (Sprague Dawley S.P.F.); details: 10 days, esophagus tube, vs untreated controls
Protocol: This test was effected on groups of 8 male rats of the Sprague Dawley S.P.F. strain weighing about 200 g and the animals received a regime containing 50% of saccharose and which was rich in cholesterol (1%). The rats were treated over 10 days with the test products which were administered through an esophagus tube as a suspension in water containing carboxymethylcellulose. The animals were left without food 16 hours after the last administration of the test product and then killed by an abdominal puncture and from the blood sample with sodium heparinate, the levels of triglycerides, cholesterol and total lipids were determined by the following methods.
The triglyceride level was determined by the semiautomatic technique of Kessler et al [Automation in Analytical Chemistry, 1965, p. 341] modified by Claude et al [Ann. Biol. Clin., Vol. 26 3-4 (1968), p. 451]. The cholesterol levels were determined by the technique of Levine [Symposium Technicon, Vol. I, (1967), p. 25] adapted to auto-analyzer system I. The nephelometric level of total lipids was determined semi-automatically by the method of Girard et al. [Symposium Technicon, 1970]. The variations expressed in percentages of the level of triglycerides, cholesterol and total lipids after administration of the various dosage of the test products in the treated animals as compared to the untreated controls and the results are reported in Table I.

| SMILES | LD50 at 168 h [1] | % Variation of levels, Cholesterol ([2]; 5 mg/kg day) | % Variation of levels, Total Lipids ([2]; 5 mg/kg day) | % Variation of levels, Triglycerides ([2]; 5 mg/kg day) | % Variation of levels, Cholesterol ([2]; 50 mg/kg day) | % Variation of levels, Total Lipids ([2]; 50 mg/kg day) | % Variation of levels, Triglycerides ([2]; 50 mg/kg day) | % Variation of levels, Cholesterol ([2]; 2 mg/kg day) | % Variation of levels, Total Lipids ([2]; 2 mg/kg day) | % Variation of levels, Triglycerides ([2]; 2 mg/kg day) |
| --- | --- | --- | --- | --- | --- | --- | --- | --- | --- | --- |
| COC(=O)C1Oc2ccc(OC)cc2C(C)(c2ccccc2)O1 (single isomer, unassigned) [Example 30, methyl 6-methoxy-4-methyl-4-phenyl-[4H]-1,3-benzodioxin-2-carboxylate] | > 1000 mg/kg | -43% | -41% | -33% | – | – | – | – | – | – |
| C=CC1(c2ccccc2)OC(C(=O)OC)Oc2ccc(Cl)cc21 (single isomer, unassigned) [Example 22, methyl 6-chloro-4-phenyl-4-ethenyl-[4H]-1,3-benzodioxin-2-carboxylate] | ~700 mg/kg | -35% | -34% | -79% | – | – | – | – | – | – |
| COC(=O)C1Oc2ccc(Cl)cc2C(Cc2ccccc2)(c2ccccc2)O1 (single isomer, unassigned) [Example 32, methyl 6-chloro-4-phenyl-4-benzyl-[4H]-1,3-benzodioxin-2-carboxylate] | > 1000 mg/kg | -45% | -41% | -11% | – | – | – | – | – | – |
| CC1(C)OC(C(=O)O)Oc2ccc(Cl)cc21 (stereo not drawn) [Example 2, 6-chloro-4,4-dimethyl-[4H]-1,3-benzodioxin-2-carboxylic acid] | 450 mg/kg | – | – | – | -23% | -28% | -11% | – | – | – |
| COC(=O)C1Oc2ccc(Cl)cc2C(C)(c2cccc(C(F)(F)F)c2)O1 (stereo not drawn) [Example 18] | > 1000 mg/kg | -41% | -51% | -47% | – | – | – | -30% | -29% | -15% |
| CCC1(CC)OC(C(=O)O)Oc2ccc(Cl)cc21 (stereo not drawn) [Example 1, 6-chloro-4,4-diethyl-[4H]-1,3-benzodioxin-2-carboxylic acid] | 200 mg/kg | – | – | – | -37% | -39% | -11% | – | – | – |
